The values that follow come from patent US8835462B2, “Macrocyclic picolinamides as fungicides” (Dow AgroSciences LLC, priority 2012, dated 2014).

Like-named read-outs stand apart in the source and are kept apart here.

Common to all, as to type: in vivo
The subject of assay [1] is Puccinia triticina. The assay is described as follows: Wheat brown rust (PUCCRT) fungicidal activity on wheat seedlings. How it is done:
Technical grades of materials were dissolved in acetone, which were then mixed with nine volumes of water containing 110 ppm Triton X-100. The fungicide solutions were applied onto wheat seedlings using an automated booth sprayer to run-off. All sprayed plants were allowed to air dry prior to further handling. Wheat plants (variety Yuma) were grown from seed in a greenhouse in 50% mineral soil/50% soil-less Metro mix until the first leaf was fully emerged, with 7-10 seedlings per pot. These plants were inoculated with an aqueous spore suspension of Septoria tritici either prior to or after fungicide treatments. After inoculation the plants were kept in 100% relative humidity (one day in a dark dew chamber followed by two to three days in a lighted dew chamber at 20° C.) to permit spores to germinate and infect the leaf. The plants were then transferred to a greenhouse set at 20° C. for disease to develop. When disease symptoms were fully expressed on the 1st leaves of untreated plants, infection levels were assessed on a scale of 0 to 100 percent disease severity. Percent disease control was calculated using the ratio of disease severity on treated plants relative to untreated plants. Evaluation of Fungicidal Activity: Wheat Brown Rust (Puccinia triticina; Synonym: Puccinia recondita f. sp. tritici; Bayer Code PUCCRT) Wheat plants (variety Yuma) were grown from seed in a greenhouse in 50% mineral soil/50% soil-less Metro mix until the first leaf was fully emerged, with 7-10 seedlings per pot. These plants were inoculated with an aqueous spore suspension of Puccinia triticina either prior to or after fungicide treatments. After inoculation the plants were kept in a dark dew room at 22° C. with 100% relative humidity overnight to permit spores to germinate and infect the leaf. The plants were then transferred to a greenhouse set at 24° C. for disease to develop. Fungicide formulation, application and disease assessment followed the procedures as described in the Example A.

Assay [2] deals with Mycosphaerella graminicola; Anamorph: Septoria tritici. The assay is described as follows: Leaf blotch of wheat (SEPTTR) fungicidal activity on wheat seedlings. Particulars: Zymoseptoria tritici. Here is the method:
Evaluation of Fungicidal Activity: Leaf Blotch of Wheat (Mycosphaerella Graminicola; Anamorph: Septoria tritici; Bayer Code […]) Technical grades of materials were dissolved in acetone, which were then mixed with nine volumes of water containing 110 ppm Triton X-100. The fungicide solutions were applied onto wheat seedlings using an automated booth sprayer to run-off. All sprayed plants were allowed to air dry prior to further handling. Wheat plants (variety Yuma) were grown from seed in a greenhouse in 50% mineral soil/50% soil-less Metro mix until the first leaf was fully emerged, with 7-10 seedlings per pot. These plants were inoculated with an aqueous spore suspension of Septoria tritici either prior to or after fungicide treatments. After inoculation the plants were kept in 100% relative humidity (one day in a dark dew chamber followed by two to three days in a lighted dew chamber at 20° C.) to permit spores to germinate and infect the leaf. The plants were then transferred to a greenhouse set at 20° C. for disease to develop. When disease symptoms were fully expressed on the 1st leaves of untreated plants, infection levels were assessed on a scale of 0 to 100 percent disease severity. Percent disease control was calculated using the ratio of disease severity on treated plants relative to untreated plants.

For assay [3], the system named is Puccinia triticina. Briefly: Fungicide mobility (dropline mobility test), wheat brown rust (PUCCRT). The following applies: 1 ug/leaf, disease-free zone as percent of distance from marked line to leaf tip; for Dropline Mobility Test PUCCRT 1 DPM: 1 Day Protectant Mobility; for Dropline Mobility Test PUCCRT 3 DCM: 3 Day Curative Mobility. How it is done: Evaluation of Fungicide Mobility: Wheat Brown Rust (Puccinia Triticina; Synonym: Puccinia recondita f. sp. Tritici; Bayer Code PUCCRT):
“Yuma” wheat seedlings were used in the test. One mg of compound was dissolved in 9 μl of EC blank (emulsifiable concentrate) and 500 μl of acetone. Acetone was then evaporated overnight by leaving the vial open in a fume hood. Two milliliters of water containing 110 ppm Triton X-100 was added to each vial to prepare application solutions. A […] drop of formulated material was applied to a marked line on the adaxial surface 5 cm from the leaf tip of the primary leaves. The primary leaves were kept in a horizontal position. Each treatment had 6 replicates. Plants were inoculated with PUCCRT 1-day after (1DPM) or 3-day prior to (3DCM) compound applications. When rust was fully expressed on primary leaves on control plants, the zone of treated leaves that was disease-free in the acropetal direction was measured with a ruler and converted to percent of the distance from marked line to leaf tip.

Where [4] appears, read: 24 h, 1 Day Protectant, read-out: Disease Control PUCCRT 1 DP.
[5] abbreviates: 72 h, 3 Day Curative, read-out: Disease Control PUCCRT 3 DC.
The mark [6] stands for this setting: 24 h, 1 Day Protectant, read-out: Disease Control SEPTTR 1 DP.
[7] abbreviates: 72 h, 3 Day Curative, read-out: Disease Control SEPTTR 3 DC.

As for `COC(=O)CCO[C@@H]1[C@@H](Cc2ccccc2)COC[C@H](NC(=O)c2nccc(OC)c2O)C(=O)O[C@H]1C` [Compound 11], the pest or weed control at 100 ppm (in the assay on Puccinia triticina [1] (setting [4]); in the assay with Puccinia triticina [1] (setting [5]); in assay [2] (setting [6]); in assay [2] (setting [7])) was 0 to 80% each time.
On to `COC(=O)CCO[C@@H]1[C@@H](Cc2ccccc2)COC[C@H](NC(=O)c2nccc(OC)c2OCOC(C)=O)C(=O)O[C@H]1C` [Compound 12], for which the pest or weed control at 100 ppm was in the range of 80 to 100% with Puccinia triticina [1] (setting [4]), 0 to 80% with Puccinia triticina [1] (setting [5]), 0 to 80% in assay [2] (setting [6]) and 0 to 80% in assay [2] (setting [7]).
For the molecule `COc1ccnc(C(=O)N[C@H]2COC[C@H](Cc3ccccc3)[C@@H](OCCC(=O)N(C)C)[C@H](C)OC2=O)c1O` [Compound 13], the pest or weed control at 100 ppm (in the assay on Puccinia triticina [1] (setting [5]); in assay [2] (setting [6]); in assay [2] (setting [7])) was 0 to 80% throughout.
For `COCCCO[C@@H]1[C@@H](Cc2ccccc2)COC[C@H](NC(=O)c2nccc(OC)c2O)C(=O)O[C@H]1C` [Compound 14], the pest or weed control at 100 ppm in the assay with Puccinia triticina [1] (setting [4]) lay in the range of 80 to 100%; in the assay on Puccinia triticina [1] (setting [5]) it was 80 to 100%; in assay [2] (setting [6]) it was 80 to 100%; in assay [2] (setting [7]), 0 to 80%.
Take `COc1ccnc(C(=O)N[C@H]2COC[C@H](Cc3ccccc3)[C@@H](OCCCC(F)(F)F)[C@H](C)OC2=O)c1O` [Compound 18]: the pest or weed control at 100 ppm (in the assay on Puccinia triticina [1] (setting [4]); in the assay on Puccinia triticina [1] (setting [5]); in assay [2] (setting [6]); in assay [2] (setting [7])) was 80 to 100% in each case. For the same molecule, the “Dropline Mobility Test PUCCRT 1 DPM” value with Puccinia triticina [3] is “B (More than 0-Less than 80)”. In the assay on Puccinia triticina [3], the “Dropline Mobility Test PUCCRT 3 DCM” value is “B (More than 0-Less than 80)”.
For `COc1ccnc(C(=O)N[C@H]2COC[C@H](Cc3ccccc3)[C@@H](OC/C=C/C(F)(F)F)[C@H](C)OC2=O)c1O` [Compound 20], the pest or weed control at 100 ppm (in the assay with Puccinia triticina [1] (setting [4]); with Puccinia triticina [1] (setting [5]); in assay [2] (setting [6]); in assay [2] (setting [7])) was 0 to 80% throughout. Further, the “Dropline Mobility Test PUCCRT 1 DPM” value in the assay on Puccinia triticina [3] is on record as “B (More than 0-Less than 80)”.
As to `CCCC(C)O[C@@H]1[C@@H](Cc2ccccc2)COC[C@H](NC(=O)c2nccc(OC)c2OCOC(C)=O)C(=O)O[C@H]1C` (stereo partly shown) [Compound 24], the pest or weed control at 100 ppm (with Puccinia triticina [1] (setting [4]); in the assay with Puccinia triticina [1] (setting [5]); in assay [2] (setting [6]); in assay [2] (setting [7])) was 80 to 100% each time. In addition, the “Dropline Mobility Test PUCCRT 1 DPM” value with Puccinia triticina [3] was “B (More than 0-Less than 80)”. Moreover, the “Dropline Mobility Test PUCCRT 3 DCM” value in the assay on Puccinia triticina [3] was “B (More than 0-Less than 80)”.
Turning to `COc1ccnc(C(=O)N[C@H]2COC[C@H](Cc3ccccc3)[C@@H](OC/C=C/C(F)(F)F)[C@H](C)OC2=O)c1OCOC(C)=O` [Compound 25], the pest or weed control at 100 ppm (in the assay on Puccinia triticina [1] (setting [4]); in the assay with Puccinia triticina [1] (setting [5]); in assay [2] (setting [6]); in assay [2] (setting [7])) was 80 to 100% throughout. Also, the “Dropline Mobility Test PUCCRT 1 DPM” value in the assay on Puccinia triticina [3] was “B (More than 0-Less than 80)”.
Consider `COC(=O)/C=C/O[C@@H]1[C@@H](Cc2ccccc2)COC[C@H](NC(=O)c2nccc(OC)c2O)C(=O)O[C@H]1C` [Compound 27], for which the pest or weed control at 100 ppm with Puccinia triticina [1] (setting [4]) fell in the range of 80 to 100%; with Puccinia triticina [1] (setting [5]), 0 to 80%; in assay [2] (setting [6]) it was 0 to 80%; in assay [2] (setting [7]), 0 to 80%. The “Dropline Mobility Test PUCCRT 1 DPM” value with Puccinia triticina [3] is on record as “B (More than 0-Less than 80)”. Besides, the “Dropline Mobility Test PUCCRT 3 DCM” value in the assay with Puccinia triticina [3] is reported as “B (More than 0-Less than 80)”.
As to `COc1ccnc(C(=O)N[C@H]2COC[C@H](Cc3ccccc3)[C@@H](OCCCc3ccccc3)[C@H](C)OC2=O)c1O` [Compound 28], the pest or weed control at 100 ppm in the assay on Puccinia triticina [1] (setting [4]) lay in the range of 80 to 100%; in the assay on Puccinia triticina [1] (setting [5]), 80 to 100%; in assay [2] (setting [6]), 0 to 80%; in assay [2] (setting [7]) it was 0 to 80%. Further, the “Dropline Mobility Test PUCCRT 1 DPM” value in the assay with Puccinia triticina [3] was “B (More than 0-Less than 80)”.
In the case of `COc1ccnc(C(=O)N[C@H]2COC[C@H](Cc3ccccc3)[C@@H](OC3CCCCC3)[C@H](C)OC2=O)c1O` [Compound 29], the pest or weed control at 100 ppm was in the range of 80 to 100% in the assay with Puccinia triticina [1] (setting [4]), 80 to 100% with Puccinia triticina [1] (setting [5]), 0 to 80% in assay [2] (setting [6]) and 80 to 100% in assay [2] (setting [7]). Also, in the assay on Puccinia triticina [3], the “Dropline Mobility Test PUCCRT 1 DPM” value is “B (More than 0-Less than 80)”. Moreover, in the assay with Puccinia triticina [3], the “Dropline Mobility Test PUCCRT 3 DCM” value is listed as “B (More than 0-Less than 80)”.
With `COc1ccnc(C(=O)N[C@H]2COC[C@H](Cc3ccccc3)[C@@H](OC(=O)c3ccccc3)[C@H](C)OC2=O)c1O` [Compound 30], the pest or weed control at 100 ppm lay within 80 to 100% with Puccinia triticina [1] (setting [4]), 0 to 80% in the assay on Puccinia triticina [1] (setting [5]), 0 to 80% in assay [2] (setting [6]) and 0 to 80% in assay [2] (setting [7]). Further, the “Dropline Mobility Test PUCCRT 1 DPM” value with Puccinia triticina [3] was “B (More than 0-Less than 80)”.
Consider `COc1ccnc(C(=O)N[C@H]2COC[C@H](Cc3ccccc3)[C@@H](OC(=O)C3CC3)[C@H](C)OC2=O)c1O` [Compound 31], for which the pest or weed control at 100 ppm (in the assay on Puccinia triticina [1] (setting [4]); in the assay with Puccinia triticina [1] (setting [5]); in assay [2] (setting [6]); in assay [2] (setting [7])) was 80 to 100% each time. The “Dropline Mobility Test PUCCRT 1 DPM” value in the assay with Puccinia triticina [3] is given as “B (More than 0-Less than 80)”. In addition, in the assay with Puccinia triticina [3], the “Dropline Mobility Test PUCCRT 3 DCM” value is “B (More than 0-Less than 80)”.
Regarding `COc1ccnc(C(=O)N[C@H]2COC[C@H](Cc3ccccc3)[C@@H](Oc3ccccc3)[C@H](C)OC2=O)c1O` [Compound 33], the pest or weed control at 100 ppm (with Puccinia triticina [1] (setting [4]); in the assay with Puccinia triticina [1] (setting [5]); in assay [2] (setting [6]); in assay [2] (setting [7])) was 80 to 100% throughout. Besides, the “Dropline Mobility Test PUCCRT 1 DPM” value in the assay on Puccinia triticina [3] is given as “B (More than 0-Less than 80)”.
With `COc1ccnc(C(=O)N[C@H]2COC[C@H](Cc3ccccc3)[C@@H](OC3CCCCC3)[C@H](C)OC2=O)c1OCOC(C)=O` [Compound 35], the pest or weed control at 100 ppm (in the assay with Puccinia triticina [1] (setting [4]); with Puccinia triticina [1] (setting [5]); in assay [2] (setting [6]); in assay [2] (setting [7])) was 80 to 100% throughout. In addition, the “Dropline Mobility Test PUCCRT 1 DPM” value with Puccinia triticina [3] is on record as “B (More than 0-Less than 80)”.
`COc1ccnc(C(=O)N[C@H]2COC[C@H](Cc3ccccc3)[C@@H](OCCC(C)C)[C@H](C)OC2=O)c1O` [Compound 41]: the pest or weed control at 100 ppm is 80 to 100% with Puccinia triticina [1] (setting [4]), 0 to 80% in the assay on Puccinia triticina [1] (setting [5]), 0 to 80% in assay [2] (setting [6]) and 0 to 80% in assay [2] (setting [7]). Moreover, the “Dropline Mobility Test PUCCRT 1 DPM” value in the assay on Puccinia triticina [3] was “B (More than 0-Less than 80)”. For the same molecule, the “Dropline Mobility Test PUCCRT 3 DCM” value in the assay with Puccinia triticina [3] is given as “B (More than 0-Less than 80)”.
Turning to `COc1ccnc(C(=O)N[C@H]2COC[C@H](Cc3ccccc3)[C@@H](OC3CCCC3)[C@H](C)OC2=O)c1O` [Compound 105], the pest or weed control at 100 ppm (in the assay with Puccinia triticina [1] (setting [4]); in the assay on Puccinia triticina [1] (setting [5]); in assay [2] (setting [6]); in assay [2] (setting [7])) was 80 to 100% each time.
